This passage reports IC50 results from patent US12319655B2, “RAF kinase inhibitors and methods of use thereof” (Deciphera Pharmaceuticals, LLC, priority 2021, dated 2025).

Assay [1] concerns Miapaca-2 cells. Nature of the assay: MiaPaca-2 Cell Proliferation Assay (1). Type of assay: cell-based. The settings on record: Homo sapiens, MIA PaCa-2, single agent, read-out: MiaPaca2 (1) IC50. The gist of the method: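 Resazurin was added after compound exposure and incubated 5-6 h, then fluorescence read at 540 nm excitation and 600 nm emission to give IC50.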
Assay [2] addresses C-Raf kinase (SEQ. ID NO: 3) (Homo sapiens (Human), UniProt P04049, Y340D/Y341D). Nature of the assay: Biochemical Assay for C-Raf (1). As to conditions: Table J, assay version (1); read-out: CRAF (1) IC50. Summed up:
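Coupled pyruvate kinase/LDH assay tracking NADH oxidation at 340 nm, with 0.43 nM C-Raf, 30.1 nM MEK and 1 mM ATP in pH 7.5 Tris buffer (15 mM MgCl2, 1% DMSO final). Read continuously for 6 h at 30 °C, rate taken from the 4–5 h window. IC50 from four-parameter fit of percent inhibition.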

The test system of assay [3] is A375 cells. Nature of the assay: A375 Cell Proliferation Assay (1). The settings on record: Homo sapiens, A-375. Format: cell-based. The gist of the method: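 Resazurin fluorescence (excitation 540 nm, emission 600 nm, after a further 5-6 h) gave IC50s from triplicate compound dilution series.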
Assay [4] deals with A-Raf kinase (SEQ. ID No: 1) (Homo sapiens (Human), UniProt P10398, Y301D/Y302D). Put plainly: Biochemical Assay for A-Raf (1). The settings on record: Table J, assay version (1); read-out: ARAF (1) IC50. The gist of the method:
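A-Raf Y301D/Y302D at 5.55 nM phosphorylates 30.1 nM MEK with 1 mM ATP in pH 7.5 Tris buffer, 1% DMSO. Activity was read continuously as NADH oxidation at 340 nm in a pyruvate kinase/lactate dehydrogenase coupled system for 6 h at 30 °C. Rates from 4–5 h were converted to percent inhibition, and IC50 came from a four-parameter fit.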

Chain of A-Raf kinase (SEQ. ID No: 1) (P10398 other isoform, or with tags, fused parts or gaps Y301D (already in the parent)/Y302D (already in the parent)): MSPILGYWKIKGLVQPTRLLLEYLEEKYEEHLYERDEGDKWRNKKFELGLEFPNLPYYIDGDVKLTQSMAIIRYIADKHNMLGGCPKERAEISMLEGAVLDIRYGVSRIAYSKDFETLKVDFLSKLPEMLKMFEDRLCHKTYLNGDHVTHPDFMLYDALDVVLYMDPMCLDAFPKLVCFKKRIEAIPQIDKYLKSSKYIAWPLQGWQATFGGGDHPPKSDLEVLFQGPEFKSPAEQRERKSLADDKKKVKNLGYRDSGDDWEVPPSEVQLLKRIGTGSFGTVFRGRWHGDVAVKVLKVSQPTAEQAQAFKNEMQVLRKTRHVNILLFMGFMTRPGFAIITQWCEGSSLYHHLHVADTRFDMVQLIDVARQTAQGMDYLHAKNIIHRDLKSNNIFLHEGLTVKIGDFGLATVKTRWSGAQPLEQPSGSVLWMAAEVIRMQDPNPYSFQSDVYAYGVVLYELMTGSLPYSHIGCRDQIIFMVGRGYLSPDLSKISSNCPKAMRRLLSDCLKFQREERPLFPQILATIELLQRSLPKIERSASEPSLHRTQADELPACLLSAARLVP
Chain of C-Raf kinase (SEQ. ID NO: 3) (P04049 307-648 Y340D/Y341D): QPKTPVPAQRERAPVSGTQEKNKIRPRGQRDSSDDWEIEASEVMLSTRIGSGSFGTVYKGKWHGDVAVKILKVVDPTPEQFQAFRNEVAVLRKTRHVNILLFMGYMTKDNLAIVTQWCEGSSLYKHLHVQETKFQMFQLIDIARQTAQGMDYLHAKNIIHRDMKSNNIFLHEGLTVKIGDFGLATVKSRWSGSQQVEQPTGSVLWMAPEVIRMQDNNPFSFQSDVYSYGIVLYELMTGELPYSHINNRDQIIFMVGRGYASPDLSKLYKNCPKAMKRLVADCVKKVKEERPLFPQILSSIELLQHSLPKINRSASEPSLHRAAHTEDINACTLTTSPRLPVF

As for `Cc1ncc(NC(=O)c2ccnc(C(C)(C)C#N)c2)cc1-c1ccnc(-c2ccnc(NC(=O)C3CC3)c2)n1` [Example 193], the half-maximal inhibitory concentration (IC50) in assay [1] is 1000 to 10000 nM; in assay [2] it was not above 100 nM; in assay [3], not above 100 nM; in assay [4], 1000 to 10000 nM.

`CNC(=O)c1cc(-c2nccc(-c3cc(NC(=O)c4ccnc(C(C)(C)C#N)c4)cnc3C)n2)ccn1` [Example 194]: the concentration for half-maximal inhibition (IC50) in assay [1] is 1000 to 10000 nM; in assay [2], 100 to 500 nM; in assay [3], 500 to 1000 nM; in assay [4] it was 1000 to 10000 nM.

For the compound `Cc1ccc(NC(=O)c2ccnc(C(C)(C)C#N)c2)cc1-c1cccc(-c2cc(NC(=O)C3(C)CC3)ncn2)c1` [Example 197], the concentration for half-maximal inhibition (IC50) is 1000 to 10000 nM in assay [1], 100 to 500 nM in assay [2], not above 100 nM in assay [3] and 1000 to 10000 nM in assay [4].

Turning to `Cc1ccc(NC(=O)c2ccnc(C(C)(C)C#N)c2)cc1-c1cccc(-c2cc(NC(=O)C3(F)CC3)ncn2)c1` [Example 200], the half-inhibitory concentration (IC50) in assay [1] was 1000 to 10000 nM; in assay [2], not above 100 nM; in assay [3] it was not above 100 nM; in assay [4], 1000 to 10000 nM.

Take `Cc1ccc(NC(=O)c2cc(CN(C)C)cc(C(F)(F)F)c2)cc1-c1cccc(-c2cc(NC(=O)C3CC3)ncn2)c1` [Example 202]: the IC50 in assay [1] is 1000 to 10000 nM; in assay [2] it was not above 100 nM; in assay [3], not above 100 nM; in assay [4], 1000 to 10000 nM.

For the compound `Cc1ccc(NC(=O)c2ccnc(C3(C#N)CC3)c2)cc1-c1cccc(-c2cc(NC(=O)C3CC3)ncn2)c1` [Example 203], the IC50 in assay [1] was 1000 to 10000 nM; in assay [2], not above 100 nM; in assay [3], not above 100 nM; in assay [4], 1000 to 10000 nM.

As to `CNC(=O)c1cc(-c2cccc(-c3cc(NC(=O)c4ccnc(C(C)(C)C#N)c4)cnc3C)c2)ncn1` [Example 204], the IC50 in assay [1] lay in the range of 1000 to 10000 nM; in assay [2], 100 to 500 nM; in assay [3], 100 to 500 nM; in assay [4], 1000 to 10000 nM.

On to `Cc1cc(-c2cc(NC(=O)C3CC3)ncn2)cc(-c2cc(NC(=O)c3ccnc(C(C)(C)C#N)c3)ccc2C)c1` [Example 212], for which the IC50 was 1000 to 10000 nM in assay [1], not above 100 nM in assay [2], not above 100 nM in assay [3] and 1000 to 10000 nM in assay [4].

Turning to `CNC(=O)c1cc(-c2cc(-c3cc(NC(=O)c4ccnc(C(C)(C)F)c4)ccc3C)ccn2)ccn1` [Example 214], the half-inhibitory concentration (IC50) is 1000 to 10000 nM in assay [1], not above 100 nM in assay [2], not above 100 nM in assay [3] and 1000 to 10000 nM in assay [4].

In the case of `CNC(=O)c1cc(-c2cc(-c3cc(NC(=O)c4cnnc(C5CC5)c4)ccc3C)ccn2)ccn1` [Example 215], the IC50 in assay [1] is 1000 to 10000 nM; in assay [2], not above 100 nM; in assay [3], 500 to 1000 nM; in assay [4], 1000 to 10000 nM.

For `Cc1ccc(NC(=O)c2ccnc(C(C)(C)C#N)c2)cc1-c1cc(-c2cc(NC(=O)C3CC3)ncn2)cc(C2CC2)c1` [Example 216], the IC50 in assay [1] is 1000 to 10000 nM; in assay [2], 100 to 500 nM; in assay [3], not above 100 nM; in assay [4], 1000 to 10000 nM.

`Cc1ncc(NC(=O)c2ccnc(C(C)(C)C#N)c2)cc1-c1cc(-c2cc(NC(=O)C3CC3)ncn2)cc(C2CC2)c1` [Example 218]: the 50% inhibitory concentration (IC50) in assay [1] was 1000 to 10000 nM; in assay [2] it was not above 100 nM; in assay [3], not above 100 nM; in assay [4] it was 1000 to 10000 nM.

Regarding `Cc1ncc(NC(=O)c2ccnc(C(C)(C)C#N)c2)cc1-c1ccnc(-c2ccnc(NC(=O)C(C)(C)C#N)c2)c1` [Example 219], the IC50 fell in the range of 1000 to 10000 nM in assay [1], 100 to 500 nM in assay [2], 100 to 500 nM in assay [3] and 1000 to 10000 nM in assay [4].

Regarding `Cc1ccc(NC(=O)c2ccnc(C3(C#N)CC3)c2)cc1-c1cccc(-c2cc(NC(=O)C3CC3)ncn2)n1` [Example 220], the IC50 in assay [1] is 1000 to 10000 nM; in assay [2], 100 to 500 nM; in assay [3], 1000 to 10000 nM; in assay [4], 1000 to 10000 nM.

`COCCNc1cc(-c2nccc(-c3cc(NC(=O)c4ccnc(C(C)(C)C#N)c4)ccc3C)n2)ccn1` [Example 221]: the IC50 in assay [1] was 1000 to 10000 nM; in assay [2] it was not above 100 nM; in assay [3], 1000 to 10000 nM; in assay [4], 1000 to 10000 nM.

`Cc1ncc(NC(=O)c2ccnc(C(C)(C)C#N)c2)cc1-c1cccc(-c2ccnc(NC(=O)C3CC3)c2)c1` [Example 222]: the IC50 in assay [1] is 1000 to 10000 nM; in assay [2], not above 100 nM; in assay [3] it was not above 100 nM; in assay [4], 500 to 1000 nM.

Take `Cc1ccc(NC(=O)c2ccnc(C(C)(C)C#N)c2)cc1-c1cncc(-c2cc(NC(=O)C3CC3)ncn2)c1` [Example 224]: the concentration for half-maximal inhibition (IC50) in assay [1] is 100 to 500 nM; in assay [2] it was not above 100 nM; in assay [3] it was not above 100 nM; in assay [4], 500 to 1000 nM.

In the case of `COC(=O)Nc1cc(-c2cccc(-c3cc(NC(=O)c4ccnc(C(C)(C)C#N)c4)cnc3C)c2)ncn1` [Example 225], the IC50 is 1000 to 10000 nM in assay [1], not above 100 nM in assay [2], not above 100 nM in assay [3] and 1000 to 10000 nM in assay [4].

Turning to `Cc1ncc(NC(=O)c2ccnc(C(C)(C)C#N)c2)cc1-c1cccc(-c2cc(NC(=O)C3CC3)ncn2)n1` [Example 226], the IC50 in assay [1] is 1000 to 10000 nM; in assay [2] it was 500 to 1000 nM; in assay [3], 1000 to 10000 nM; in assay [4] it was 1000 to 10000 nM.

Take `Cc1ccc(NC(=O)c2ccnc(C3CC3)c2)cc1-c1ccnc(-c2ccnc(NC(=O)C3CC3)c2)n1` [Example 229]: the IC50 in assay [1] is 1000 to 10000 nM; in assay [2], not above 100 nM; in assay [3], 100 to 500 nM; in assay [4], 100 to 500 nM.

`Cc1ccc(NC(=O)c2ccnc(C(C)(C)C#N)c2)cc1-c1cnnc(-c2ccnc(NC(=O)C3CC3)c2)c1` [Example 230]: the IC50 is 500 to 1000 nM in assay [1], not above 100 nM in assay [2], not above 100 nM in assay [3] and 1000 to 10000 nM in assay [4].

Consider `CNC(=O)c1cc(-c2cc(-c3cc(NC(=O)c4cccc(C(C)(C)C#N)c4)ccc3C)cc(OCCO)n2)ccn1` [Example 231], for which the IC50 in assay [1] was 1000 to 10000 nM; in assay [2] it was not above 100 nM; in assay [3], not above 100 nM; in assay [4], 1000 to 10000 nM.

Turning to `Cc1ccc(NC(=O)c2ccnc(C(C)(C)C#N)c2)cc1-c1cccc(-c2cc(NC(=O)C3CC3)ncn2)n1` [Example 233], the concentration for half-maximal inhibition (IC50) was 1000 to 10000 nM in assay [1], not above 100 nM in assay [2], 500 to 1000 nM in assay [3] and 1000 to 10000 nM in assay [4].

Take `CNC(=O)c1cc(-c2cncc(-c3cc(NC(=O)c4ccnc(C(C)(C)C#N)c4)ccc3C)c2)ncn1` [Example 235]: the IC50 in assay [1] was 1000 to 10000 nM; in assay [2], not above 100 nM; in assay [3], not above 100 nM; in assay [4], 1000 to 10000 nM.

Regarding `Cc1ccc(NC(=O)c2ccnc(C(C)(C)C#N)c2)cc1-c1ccnc(-c2ccnc(NC(=O)C3(C#N)CC3)c2)n1` [Example 241], the IC50 was 500 to 1000 nM in assay [1], not above 100 nM in assay [2], not above 100 nM in assay [3] and 1000 to 10000 nM in assay [4].

Regarding `Cc1ccc(NC(=O)c2ccnc(C(C)(C)C#N)c2)cc1-c1cc(-c2ccnc(NC(=O)C3CC3)c2)cnn1` [Example 245], the IC50 is 1000 to 10000 nM in assay [1], not above 100 nM in assay [2], not above 100 nM in assay [3] and 500 to 1000 nM in assay [4].
